Source: article PMC7377239, “Cardiovascular Effects of Polychlorinated Biphenyls and Their Major Metabolites” (Environmental Health Perspectives, 2020)
Where two headings read alike, the source gives them in different places.

Columns and labels:
HUVECs = experiment: Tube formation (tubulogenesis) assay in HUVECs, 18 h; format: cell-based, human; settings: Homo sapiens, HUVEC, 18 h, HUVECs tube formation; for activity at 0.01 µM: concentration 0.01 µM; for activity at 0.1 µM: concentration 0.10 µM; for activity at 1 µM: concentration 1.00 µM; for activity at 10 µM: concentration 10.00 µM; for activity at 100 µM: concentration 100.00 µM
Outline: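 HUVECs (passage 1–5) seeded on reduced-growth-factor basement membrane and exposed to compounds overnight at 37°C, 5% CO2, in 2× maintenance medium with 12.5 ng/mL VEGF; 0.5% DMSO vehicle. Calcein AM-stained tube networks imaged and analysed; vehicle-normalized readouts fit to four-parameter logistic, POD set at one SD of vehicle means.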

[1] = system: iCell endothelial cells (human iPSC-derived ECs); experiment: High-content imaging cytotoxicity in iCell endothelial cells, 24 h; format: cell-based; settings: Homo sapiens, Endothelial cell, iPSC-EC; for viability at 0.1 µM / activity at 0.1 µM: 0.10 µM; for minimal effective concentration: 100.00 = highest concentration tested
Outline: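 Readouts were vehicle-normalised and fitted to a four-parameter logistic model. POD was set at one SD beyond 0.5% DMSO control means, and 100 µM was assigned when no response was seen. Cells were monolayers of iCell endothelial cells imaged after 24 h compound exposure using nuclear, mitochondrial and calcein dyes.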

[2] = 0.00 µM = 100.00, read-out: huvec.mtl.18hr
[3] = 0.00 µM = 100.00, read-out: huvec.tlps.18hr
[4] = 0.00 µM = 100.00, read-out: huvec.tta.18hr
[5] = 0.00 µM = 100.00, read-out: huvec.ttl.18hr
[6] = 0.00 µM = 100.00, read-out: endo.cyto.24hr
[7] = 0.00 µM = 100.00, read-out: endo.mito.24hr
[8] = 0.00 µM = 100.00, read-out: endo.mitoint.24hr
[9] = 0.00 µM = 100.00, read-out: endo.nma.24hr
[10] = 0.00 µM = 100.00, read-out: endo.tc.24hrs

For `Clc1cc(Cl)c(-c2cc(Cl)c(Cl)cc2Cl)cc1Cl` [PCB153], the minimal effective concentration (HUVECs; MAX 100.00, read-out: huvec.mtl.18hr POD) was 19.8 µM, the minimal effective concentration (HUVECs; MAX 100.00, read-out: huvec.tlps.18hr POD) was 61.8 µM and the minimal effective concentration (HUVECs; MAX 100.00, read-out: huvec.tta.18hr POD) was 8.87 µM. For the same compound, the minimal effective concentration (HUVECs; MAX 100.00, read-out: huvec.ttl.18hr POD) was 0.13 µM, the activity at 0.01 µM (HUVECs; [2]) was 88.3% and the activity at 0.01 µM (HUVECs; [3]) was 103%. The activity at 0.01 µM (HUVECs; [4]) was 72.1%, the activity at 0.01 µM (HUVECs; [5]) was 66.9% and the activity at 0.1 µM (HUVECs; [2]) was 95.5%. It also gave an activity at 0.1 µM (HUVECs; [3]) of 80.3%, an activity at 0.1 µM (HUVECs; [4]) of 103% and an activity at 0.1 µM (HUVECs; [5]) of 95.6%. For the same compound, the activity at 1 µM (HUVECs; [2]) was 88.7%, the activity at 1 µM (HUVECs; [3]) was 89.4% and the activity at 1 µM (HUVECs; [4]) was 73.7%. It also gave an activity at 1 µM (HUVECs; [5]) of 66.3%, an activity at 10 µM (HUVECs; [2]) of 95.2% and an activity at 10 µM (HUVECs; [3]) of 107%. The activity at 10 µM (HUVECs; [4]) was 115%, the activity at 10 µM (HUVECs; [5]) was 106% and the activity at 100 µM (HUVECs; [2]) was 65.2%. It also gave an activity at 100 µM (HUVECs; [3]) of 61%, an activity at 100 µM (HUVECs; [4]) of 54.1% and an activity at 100 µM (HUVECs; [5]) of 48%. It also gave a viability at 0.01 µM [1, 6] of 97.6%, an activity at 0.01 µM [1, 7] of 97.9% and an activity at 0.01 µM [1, 8] of 86%. It also gave an activity at 0.01 µM [1, 9] of 102%, a viability at 0.01 µM [1, 10] of 97.6% and a viability at 0.1 µM [1, 6] of 97.8%. It also gave an activity at 0.1 µM [1, 7] of 98.2%, an activity at 0.1 µM [1, 8] of 85.5% and an activity at 0.1 µM [1, 9] of 101%. It also gave a viability at 0.1 µM [1, 10] of 97.8%, a viability at 1 µM [1, 6] of 103% and an activity at 1 µM [1, 7] of 103%. For the same compound, the activity at 1 µM [1, 8] was 84.3%, the activity at 1 µM [1, 9] was 100% and the viability at 1 µM [1, 10] was 103%. For the same compound, the viability at 10 µM [1, 6] was 109%, the activity at 10 µM [1, 7] was 110% and the activity at 10 µM [1, 8] was 80.5%. It also gave an activity at 10 µM [1, 9] of 98%, a viability at 10 µM [1, 10] of 109% and a viability at 100 µM [1, 6] of 45.5%. It also gave an activity at 100 µM [1, 7] of 42%, an activity at 100 µM [1, 8] of 57.6% and an activity at 100 µM [1, 9] of 108%. It also gave a viability at 100 µM [1, 10] of 46.4%, a minimal effective concentration ([1]; read-out: endo.cyto.24hr POD) of 18.6 µM and a minimal effective concentration ([1]; read-out: endo.mito.24hr POD) of 18.6 µM. It also gave a minimal effective concentration ([1]; read-out: endo.mitoint.24hr POD) of 0.07 µM, a minimal effective concentration ([1]; read-out: endo.nma.24hr POD) of 62.5 µM and a minimal effective concentration ([1]; read-out: endo.tc.24hrs POD) of 49.2 µM.
